Key:
[1] = target: T1, human cannabinoid receptor type 1 (Homo sapiens, UniProt P21554); assay: Human CB1 Radioligand Binding Assay (basis of selectivity CB2 vs. CB1)
T1 construct: purchased Perkin Elmer RBHCB1M; host or cells: HEK 293 EBNA cells
Protocol: (§1) This receptor binding filtration assay measures the receptor-ligand interactions of compounds by measuring ability to compete with a radiolabeled control ligand. Reactions were performed in 96 deep-well plate (Costar 3961) with a final volume of 600 ul. Compounds were added to each well either in single point (10 uM final) or dose-response. Compounds were delivered in DMSO or further diluted in incubation buffer to a final assay DMSO concentration of 1%. Incubation buffer (50 mM Tris-HCl pH 7.4, 2.5 mM EGTA, 5 mM MgCl2, 5.0 mg/ml fatty acid free BSA) was added to each well. Following buffer addition, [^3H] CP-55,940 was added. Tritiated CP-55,940 (Perkin Elmer) was used at the Kd determined from prior saturation binding experiments conducted on each lot of membranes. Membrane preparations from stably transfected CHO CB2 cells were added and the reaction was incubated for 90 minutes at 30° C. Unifilter GF/C filtration plates (Perkin Elmer) were pre-wet with 0.05% polyethylenimine. Samples were transferred to Unifilter plates and separation of unbound radioligand was achieved using a vacuum manifold (Millipore). Following thorough washing with 5 ml/well ice-cold wash buffer (50 mM Tris-HCl pH 7.4, 2.5 mM EGTA, 5 mM MgCl2, 0.5 mg/ml fatty acid free BSA), filterplates were dried completely. Betaplate Scint Scintillation cocktail (25 ul, Perkin Elmer) was applied and plates were read using Microbeta Trilux (Wallac). Data analysis was performed in Spotfire. Activity of the positive control (100 nM CP-55,940) was set as 100% efficacy.
The CB1 binding assay was performed as described above except that HEK 293 EBNA cells expressing human cannabinoid receptor type 1 (Perkin Elmer cat #RBHCB1M) were used according the manufacturer's instructions. The incubation buffer was composed of 50 mM Tris-HCl pH 7.4, 2.5 mM EDTA, 5 mM MgCl2, 5.0 mg/ml fatty acid free BSA and the wash buffer was composed of 50 mM Tris-HCl pH 7.4, 2.5 mM EDTA, 5 mM MgCl2, 0.5 mg/ml fatty acid free BSA. Activity of the positive control (100 nM CP-55,940) was set as 100% efficacy.

[2] = target: T2, Human CB2 (Homo sapiens, UniProt P34972); assay: Human CB2 Radioligand Binding Assay; conditions: membranes from stably transfected CHO CB2 cells; competition with [3H] CP-55,940; read-out: CB2 Ligand Binding Asssay
T2 construct: expressed in transfected cells; membrane preparation
Protocol: as §1
Stable recombinant Human CB2-CHO cell membranes were prepared as follows: Chinese Hamster Ovarian (CHO) cells stably expressing human cannabinoid receptor type 2 were grown to ˜90% confluence in 15×100 mm culture dishes under puromycin selection (5 ug/ml) Cells were harvested from culture flasks using a cell scraper, were washed once with cold phosphate-buffered saline (calcium and magnesium free) and pelleted by centrifugation at 400 g for 5 min at 4° C. Cell pellet was washed once with cold phosphate-buffered saline and centrifuged again at 400×g for 5 min at 4° C. The pellet was suspended in ice-cold lysis buffer (10 mM Tris-HCl, 0.1 mM EDTA, containing […], pH 7.5) and homogenized in a chilled 7 ml glass dounce homogenizer using 50 strokes. The homogenate was centrifuged at 400 g for 15 min at 4° C. The cloudy supernatant was collected and centrifuged at 41000 g for 30 min at 4° C. The resulting pellet was washed with ice-cold sucrose-free lysis buffer and centrifuged again at 41000 g for 30 min at 4° C. The membrane pellet was suspended in sucrose-free storage buffer (10 mm Tris-HCl, 0.1 mM EDTA, pH 7.5) to a concentration of 2-3 mg protein/ml. Aliquots were flash frozen in liquid nitrogen and stored at −80° C. Concentration was determined using Dc protein assay kit (Bio-Rad).

T2 sequence (P34972 whole entry): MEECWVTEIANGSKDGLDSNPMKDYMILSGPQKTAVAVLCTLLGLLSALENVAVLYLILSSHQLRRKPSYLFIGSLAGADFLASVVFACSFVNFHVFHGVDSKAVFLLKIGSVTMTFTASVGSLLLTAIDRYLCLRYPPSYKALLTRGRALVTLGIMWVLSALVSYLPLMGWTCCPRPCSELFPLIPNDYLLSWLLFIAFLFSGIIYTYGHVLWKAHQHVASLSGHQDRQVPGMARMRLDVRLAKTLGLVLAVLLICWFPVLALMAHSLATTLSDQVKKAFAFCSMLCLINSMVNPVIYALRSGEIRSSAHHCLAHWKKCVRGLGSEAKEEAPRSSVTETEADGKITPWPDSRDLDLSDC
T1 sequence (P21554 whole entry): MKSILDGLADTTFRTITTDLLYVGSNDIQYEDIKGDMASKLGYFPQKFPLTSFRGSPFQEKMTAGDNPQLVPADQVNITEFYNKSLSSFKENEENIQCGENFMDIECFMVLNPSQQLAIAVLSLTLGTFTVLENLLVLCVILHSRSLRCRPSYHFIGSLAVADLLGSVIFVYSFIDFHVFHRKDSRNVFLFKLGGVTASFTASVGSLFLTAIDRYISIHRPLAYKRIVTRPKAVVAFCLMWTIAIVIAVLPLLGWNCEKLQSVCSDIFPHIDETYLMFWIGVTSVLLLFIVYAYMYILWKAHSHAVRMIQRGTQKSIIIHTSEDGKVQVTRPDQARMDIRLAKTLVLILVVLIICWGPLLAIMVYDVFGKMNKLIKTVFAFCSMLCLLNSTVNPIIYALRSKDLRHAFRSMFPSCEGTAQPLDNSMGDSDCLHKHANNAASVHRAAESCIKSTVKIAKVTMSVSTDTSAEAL

Row | Structure (SMILES) | Selectivity, CB2 vs. CB1 [1] | IC50 (radioligand displacement) [2]
1 | CC(C)(C)c1ccc(C2c3cccn3CCC2C(=O)Nc2ccc(F)c(F)c2)cc1 (mixture of isomers) [Example 95, 8-(4-tert-Butylphenyl)-N-(3,4-difluorophenyl)-5,6,7,8-tetrahydroindolizine-7-carboxamide] | + (+ indicates > 10-fold) | < 1000 nM
2 | O=C(Nc1ccc(F)cc1F)C1CCn2cccc2C1c1ccccc1 (mixture of isomers) [Example 100, N-(2,4-Difluorophenyl)-8-phenyl-5,6,7,8-tetrahydroindolizine-7-carboxamide] | − (− indicates < 10-fold) | > 1000 nM
3 | O=C(Nc1ccc(F)c(F)c1)C1CCn2cccc2C1c1ccccc1 (mixture of isomers) [Example 101, N-(3,4-Difluorophenyl)-8-phenyl-5,6,7,8-tetrahydroindolizine-7-carboxamide] | − (− indicates < 10-fold) | > 1000 nM
4 | O=C(Nc1ccc(Cl)cc1)C1CCn2cccc2C1c1ccccc1 (mixture of isomers) [Example 102, N-(4-Chlorophenyl)-8-phenyl-5,6,7,8-tetrahydroindolizine-7-carboxamide] | − (− indicates < 10-fold) | > 1000 nM
5 | O=C(Nc1ccc(C(F)(F)F)cc1)C1CCn2cccc2C1c1ccccc1 (mixture of isomers) [Example 103, 8-Phenyl-N-(4-(trifluoromethyl)phenyl)-5,6,7,8-tetrahydroindolizine-7-carboxamide] | − (− indicates < 10-fold) | > 1000 nM
6 | O=C(Nc1ccc(OC(F)(F)F)cc1)C1CCn2cccc2C1c1ccccc1 (mixture of isomers) [Example 104, 8-Phenyl-N-(4-(trifluoromethoxy)phenyl)-5,6,7,8-tetrahydroindolizine-7-carboxamide] | − (− indicates < 10-fold) | > 1000 nM
7 | CC(C)(C)c1ccc(C2c3cccn3CCCC2NC(=O)Nc2ccc(Cl)cc2)cc1 (mixture of isomers) [Example 115, 1-(9-(4-tert-Butylphenyl)-6,7,8,9-tetrahydro-5H-pyrrolo[1,2-a]azepin-8-yl)-3-(4-chlorophenyl)urea] | + (+ indicates > 10-fold) | > 1000 nM
8 | CC(C)(C)c1ccc(C2c3cccn3CCCC2NC(=O)Nc2ccc(F)cc2F)cc1 (mixture of isomers) [Example 116, 1-(9-(4-tert-Butylphenyl)-6,7,8,9-tetrahydro-5H-pyrrolo[1,2-a]azepin-8-yl)-3-(2,4-difluorophenyl)urea] | − (− indicates < 10-fold) | < 1000 nM
9 | CC(C)(C)c1ccc(C2c3cccn3CCCC2NC(=O)Nc2ccc(F)c(F)c2)cc1 (mixture of isomers) [Example 117, 1-(9-(4-tert-Butylphenyl)-6,7,8,9-tetrahydro-5H-pyrrolo[1,2-a]azepin-8-yl)-3-(3,4-difluorophenyl)urea] | − (− indicates < 10-fold) | < 1000 nM
10 | CC(C)(C)c1ccc(C2c3cccn3CCCC2NC(=O)Nc2ccc(C(F)(F)F)cc2)cc1 (mixture of isomers) [Example 122, 1-(9-(4-tert-Butylphenyl)-6,7,8,9-tetrahydro-5H-pyrrolo[1,2-a]azepin-8-yl)-3-(4-(trifluoromethyl)phenyl)urea] | + (+ indicates > 10-fold) | < 1000 nM
11 | CC(C)(C)c1ccc(CC2[C@@H]3CCCN3CCCN2C(=O)Nc2ccc(F)cc2F)cc1 (mixture of isomers) [Example 124, (9aS)-1-(4-tert-Butylbenzyl)-N-(2,4-difluorophenyl)hexahydro-1H-pyrrolo[1,2-a][1,4]diazepine-2(3H)-carboxamide] | − (− indicates < 10-fold) | > 1000 nM
12 | CC(C)(C)c1ccc(CC2[C@@H]3CCCN3CCCN2C(=O)Nc2ccc(Cl)cc2)cc1 (mixture of isomers) [Example 125, (9aS)-1-(4-tert-Butylbenzyl)-N-(4-chlorophenyl)hexahydro-1H-pyrrolo[1,2-a][1,4]diazepine-2(3H)-carboxamide] | − (− indicates < 10-fold) | > 1000 nM
13 | CC(C)(C)c1ccc(CC2[C@@H]3CCCN3CCCN2C(=O)Nc2ccccc2)cc1 (mixture of isomers) [Example 126, (9aS)-1-(4-tert-Butylbenzyl)-N-phenylhexahydro-1H-pyrrolo[1,2-a][1,4]diazepine-2(3H)-carboxamide] | − (− indicates < 10-fold) | > 1000 nM
14 | CC(C)(C)c1ccc(CC2[C@@H]3CCCN3CCCN2C(=O)Nc2ccc(F)cc2)cc1 (mixture of isomers) [Example 127, (9aS)-1-(4-tert-Butylbenzyl)-N-(4-fluorophenyl)hexahydro-1H-pyrrolo[1,2-a][1,4]diazepine-2(3H)-carboxamide] | − (− indicates < 10-fold) | > 1000 nM
15 | O=C(Nc1ccc(F)cc1F)[C@H]1CCCn2cccc2[C@@H]1c1ccccc1 (relative stereo) [Example 105, (8,9-trans)-N-(2,4-Difluorophenyl)-9-phenyl-6,7,8,9-tetrahydro-5H-pyrrolo[1,2-a]azepine-8-carboxamide] | − (− indicates < 10-fold) | > 1000 nM
16 | O=C(Nc1ccc(F)c(F)c1)[C@H]1CCCn2cccc2[C@@H]1c1ccccc1 (relative stereo) [Example 107, (8,9-trans)-N-(3,4-Difluorophenyl)-9-phenyl-6,7,8,9-tetrahydro-5H-pyrrolo[1,2-a]azepine-8-carboxamide] | − (− indicates < 10-fold) | > 1000 nM
17 | CC(C)(C)c1ccc(C2c3cccn3CCN2C(=O)Nc2ccc(Cl)cc2Cl)cc1 (stereo not drawn) [Example 3, 1-(4-tert-Butylphenyl)-N-(2,4-dichlorophenyl)-3,4-dihydropyrrolo[1,2-a]pyrazine-2(1H)-carboxamide] | – | < 1000 nM
18 | CC(C)(C)c1ccc(C2NCCCn3cccc32)cc1 (stereo not drawn) [Example 6, 1-(4-tert-Butylphenyl)-2,3,4,5-tetrahydro-1H-pyrrolo[1,2-a][1,4]diazepine] | – | > 1000 nM
19 | Cc1ccc(C2c3cccn3CCCN2C(=O)Nc2ccc(Cl)cc2Cl)cc1 (stereo not drawn) [Example 9, N-(2,4-Dichlorophenyl)-1-p-tolyl-4,5-dihydro-1H-pyrrolo[1,2-a][1,4]diazepine-2(3H)-carboxamide] | – | < 1000 nM
20 | O=C(Nc1ccc(F)cc1F)N1CCCn2cccc2C1c1ccc(OC(F)(F)F)cc1 (stereo not drawn) [Example 15, N-(2,4-Difluorophenyl)-1-(4-(trifluoromethoxy)phenyl)-4,5-dihydro-1H-pyrrolo[1,2-a][1,4]diazepine-2(3H)-carboxamide] | – | < 1000 nM
21 | O=C(Nc1ccc(Cl)cc1Cl)N1CCCn2cccc2C1c1ccc(OC(F)(F)F)cc1 (stereo not drawn) [Example 16] | – | > 1000 nM
22 | O=C(Nc1ccc(C(F)(F)F)cc1)C1=C(c2ccccc2)c2cccn2CC1 [Example 68, 8-Phenyl-N-(4-(trifluoromethyl)phenyl)-5,6-dihydroindolizine-7-carboxamide] | – | > 1000 nM
23 | O=C(Nc1ccc(F)cc1F)C1=C(c2ccccc2)c2cccn2CC1 [Example 70, N-(2,4-Difluorophenyl)-8-phenyl-5,6-dihydroindolizine-7-carboxamide] | – | > 1000 nM

— patent publication US20090062253A1, “HETEROCYCLODIAZEPINE CANNABINOID RECEPTOR MODULATORS FOR TREATMENT OF DISEASE” (KALYPSYS, INC., priority 2007, published 2009)
